{
  "source": "paper PMC12045974",
  "about": "“T cell toxicity induced by tigecycline binding to the mitochondrial ribosome” (Nature Communications, 2025)",
  "key": {"[1]": {"system": "HeLa cells", "assay": "Cell viability assay (CCK-8), HeLa cells", "assay_type": "cell-based", "settings": "for cell vialibity normalized to Vehicle (DMSO): in % (unit assumed)", "protocol": "(§1) Cells were seeded in 96-well plates ranging from 2000 to 15,000 cells per well depending on different cell lines and treated with antibiotics in serial dilutions for 72 h (120 h for the preliminary assays) in a humidified incubator (37 °C, 5% CO2) in 100 μl medium (DMEM with 10% FBS, 2.05 mM L-glutamine (Sigma) for Hek293 and Hela; RPMI-1640 with 10% FBS, 2.05 mM L-glutamine (Sigma), and 55 μM 2-ME (Gibco) for Jurkat T cells and PBMCs). Based on preliminary tests, the number of cells per well was optimized to 2000 for Hela and Hek293, 6000 for Jurkat T cells, and 15,000 for PBMCs. The stocks of antibiotics were prepared by dissolving in DMSO. As control, the same amount of DMSO was added to the non-treated groups. Serial drug dilutions were prepared in the corresponding medium to provide a total of 9 concentrations up to 300 μM for tetracyclines and up to 900 μM for additional bacterial protein synthesis inhibitors. After drug treatment, 10% CCK-8 (Cell Counting Kit-8, Sigma Aldrich) (10 μl per well) of the total volume was added to the cells and incubated for 1–4 h depending on cell lines (1 h for Hela and Hek293; 3 h for Jurkat T cells; 4 h for PBMCs) before the evaluation of the effect of antibiotics on cell viability. […] Results were visually confirmed under the light microscope. Each treatment was performed in technical repeats. Dose-response curves were plotted, mean ± SEM was shown, and half maximal inhibitory concentration (IC50) values were calculated in GraphPad Prism."}, "[2]": {"system": "mitochondrial translation in CD4+ and CD8+ T cells", "assay": "Mito-FUNCAT-FACS assay of mitochondrial translation on activated T cells", "assay_type": "cell-based, human", "settings": "per PBMC donor, listed as Pos ctrl", "protocol": "Thawed PBMCs were washed with RPMI ( + 10% FBS, 2.05 mM L-glutamine (Sigma), and 55 μM 2-ME (Gibco)) before resting at 37 °C (5% CO2) for 30 min. After counting, cells were resuspended in FACS buffer at a density of 5 × 10^7 cells/ml. T cells were isolated using EasySep™ Human T Cell Isolation Kit (Stemcell Technologies). Purified T cells were counted and 85,000 cells per well seeded onto 96-well U-bottom plates with/without Human T-Activator CD3/CD28 beads (Invitrogen) at a 1:2.8 cell:bead ratio and 10 ng/ml IL-2 (Proteintech) in RPMI-1640 ( + 10% FBS, 2.05 mM L-glutamine (Sigma), and 55 μM 2-ME (Gibco)) for 48 h. To assess mitochondrial translation, activated T cells were washed twice with methionine/cysteine/pyruvate-free DMEM and incubated in methionine-depletion medium (DMEM supplemented with 10% dialyzed FBS, 1× GlutaMAX, 1× sodium pyruvate, and 0.2 mM L-cystine) for 30 min at 37 °C. To inhibit cytosolic translation, anisomycin (100 μg/mL) was added to the medium. For mitochondrial translation inhibition, 100 µg/mL chloramphenicol (309 μM, positive control) or tigecycline (2.5−10 μM) were added to the medium. Cells were then labeled with 50 μM L-homopropargylglycine (HPG) for 3 h at 37 °C, during which time the medium still contained antibiotics.\nFollowing HPG labeling, cells were collected and stained with surface markers (CD4, CD8). Cells were pre-permeabilized with 0.005% digitonin in mitochondria-protective buffer (10 mM HEPES/KOH, 10 mM NaCl, 5 mM MgCl2, 300 mM sucrose, pH 7.5) for 3 min, fixed with 4% paraformaldehyde for 10 min, and fully permeabilized with 0.25% Triton X-100 for 5 min. After blocking with 5% BSA for 10 min, incorporated HPG was detected via copper-catalyzed cycloaddition using 0.05 μM Alexa Fluor 488 picolyl azide (Click-iT™ Plus Alexa Fluor™ 488 Picolyl Azide Toolkit, Gibco) for 30 min at room temperature. Subsequently, the reaction cocktail was removed and cells resuspended in FACS buffer. Flow cytometry was carried out on a BD Celesta (BD Biosciences) and analyzed in FlowJo (TreeStar). Data are presented as fold change relative to negative controls."}, "[3]": {"system": "Jurkat T cells", "assay": "Cell viability assay (CCK-8), Jurkat T cells", "assay_type": "cell-based, human", "settings": "for cell vialibity normalized to Vehicle (DMSO): in % (unit assumed)", "protocol": "as §1"}},
  "note": "“And” between values parts separate entries of the source, which are not always exact repeats. Equal entries are not always repeated.",
  "data": [
    {"smiles": "O=C(N[C@H](CO)[C@H](O)c1ccc([N+](=O)[O-])cc1)C(Cl)Cl", "note": "[Chloramphenicol, chloramphenicol]", "values": [
      {"measurement": "cell vialibity normalized to Vehicle (DMSO)", "setting": "[1]; Hela 3d, dose 1 μM", "value": "115.472 and 112.907 and 109.149 and 106.395 and 107.336"},
      {"measurement": "cell vialibity normalized to Vehicle (DMSO)", "setting": "[1]; Hela 3d, dose 5 μM", "value": "99.7977 and 98.9686 and 95.4348 and 95.1889 and 93.3131"},
      {"measurement": "cell vialibity normalized to Vehicle (DMSO)", "setting": "[1]; Hela 3d, dose 10 μM", "value": "85.1565 and 78.1239 and 77.2387 and 77.1403 and 78.8686"},
      {"measurement": "cell vialibity normalized to Vehicle (DMSO)", "setting": "[1]; Hela 3d, dose 100 μM", "value": "10.3486 and 10.3064 and 10.2994 and 10.5805"},
      {"measurement": "cell vialibity normalized to Vehicle (DMSO)", "setting": "[1]; Hela 5d, dose 1 μM", "value": "101.268 and 103.029 and 103.952 and 106.316 and 104.379"},
      {"measurement": "cell vialibity normalized to Vehicle (DMSO)", "setting": "[1]; Hela 5d, dose 5 μM", "value": "96.435 and 103.217 and 108.966 and 107.207 and 102.082"},
      {"measurement": "cell vialibity normalized to Vehicle (DMSO)", "setting": "[1]; Hela 5d, dose 10 μM", "value": "98.7408 and 101.357 and 94.3137 and 101.415 and 97.4373"},
      {"measurement": "cell vialibity normalized to Vehicle (DMSO)", "setting": "[1]; Hela 5d, dose 50 μM", "value": "38.8993 and 53.367 and 28.3728 and 27.4352 and 29.5718"},
      {"measurement": "cell vialibity normalized to Vehicle (DMSO)", "setting": "[1]; Hela 5d, dose 100 μM", "value": "5.6014 and 6.201 and 5.26 and 4.947 and 5.042"},
      {"measurement": "IC50", "setting": "[1]; Homo sapiens, 120 h, HeLa, after 5 days, read-out: IC50 (cell survival)", "value": 41.7, "unit": "µM"},
      {"measurement": "mitochondrial translation (fold change relative to negative control)", "setting": "[2]; CD4, positive control 309 μM", "value": "0.3672 and 0.3419 and 0.3517 and 0.3014"},
      {"measurement": "mitochondrial translation (fold change relative to negative control)", "setting": "[2]; CD8, positive control 309 μM", "value": "0.3783 and 0.3616 and 0.3857 and 0.2719"},
      {"measurement": "IC50", "setting": "[3]; Homo sapiens, 120 h, Jurkat T cells, after 5 days, read-out: IC50 (cell survival)", "value": 25.9, "unit": "µM"},
      {"measurement": "cell vialibity normalized to Vehicle (DMSO)", "setting": "[3]; Jurkat 3d, dose 1 μM", "value": "91.6279 and 94.5323 and 104.434 and 103.886 and 105.55"},
      {"measurement": "cell vialibity normalized to Vehicle (DMSO)", "setting": "[3]; Jurkat 3d, dose 5 μM", "value": "74.0465 and 84.1447 and 84.7132 and 88.5271 and 87.2868"},
      {"measurement": "cell vialibity normalized to Vehicle (DMSO)", "setting": "[3]; Jurkat 3d, dose 10 μM", "value": "63.1628 and 61.0232 and 47.7623 and 47.907 and 61.2196"},
      {"measurement": "cell vialibity normalized to Vehicle (DMSO)", "setting": "[3]; Jurkat 3d, dose 50 μM", "value": "13.1266 and 12.4444 and 12.0827 and 12.6408 and 12.4548"},
      {"measurement": "cell vialibity normalized to Vehicle (DMSO)", "setting": "[3]; Jurkat 3d, dose 100 μM", "value": "11.7933 and 11.4419 and 11.2455 and 11.1111 and 11.3282"},
      {"measurement": "cell vialibity normalized to Vehicle (DMSO)", "setting": "[3]; Jurkat 5d, dose 1 μM", "value": "106.953 and 119.838 and 129.235 and 117.806 and 137.373"},
      {"measurement": "cell vialibity normalized to Vehicle (DMSO)", "setting": "[3]; Jurkat 5d, dose 5 μM", "value": "116.039 and 104.909 and 120.616 and 122.485 and 146.087"},
      {"measurement": "cell vialibity normalized to Vehicle (DMSO)", "setting": "[3]; Jurkat 5d, dose 10 μM", "value": "103.365 and 68.172 and 100.846 and 74.0691 and 124.665"},
      {"measurement": "cell vialibity normalized to Vehicle (DMSO)", "setting": "[3]; Jurkat 5d, dose 50 μM", "value": "10.0745 and 7.603 and 8.334 and 7.062 and 9.025"},
      {"measurement": "cell vialibity normalized to Vehicle (DMSO)", "setting": "[3]; Jurkat 5d, dose 100 μM", "value": "7.529 and 7.5694 and 7.36 and 6.913 and 8.592"}
    ]}
  ]
}
